Test results as given in ChEMBL document CHEMBL1125860 (J Med Chem, 1991).
The source made the active and inactive calls. The rule behind the calls is not given here.

Key:
[1] = test system: Rattus norvegicus; assay: In vivo inhibition of galactitol accumulation in sciatic nerves of rat at 26 mg/kg/day; Not significant; assay type: functional, organism-based; conditions: Sciatic nerve
[2] = test system: Rattus norvegicus; assay: In vivo inhibition of galactitol accumulation in diaphragm of rat at 26 mg/kg/day; assay type: functional
[3] = target: Aldo-keto reductase family 1 member B1 (Bos taurus) (UniProt P16116); assay: In vitro % decrease of aldose reductase measured in isolated partially purified bovine lens preparations at 10e-7 M concentration
[4] = test system: Rattus norvegicus; assay: In vivo inhibition of galactitol accumulation in sciatic nerves of rat at 47 mg/kg/day; Not significant; assay type: functional, organism-based; conditions: Sciatic nerve
[5] = test system: Rattus norvegicus; assay: In vivo inhibition of galactitol accumulation in diaphragm of rat at 47 mg/kg/day; Not significant; assay type: functional, organism-based
[6] = target: Aldo-keto reductase family 1 member B1 (Bos taurus) (UniProt P16116); assay: In vitro % decrease of aldose reductase was measured in isolated partially purified bovine lens preparations at 10e-7 M concentration; Not active
[7] = test system: Rattus norvegicus; assay: In vivo inhibition of galactitol accumulation in diaphragm of rat at 48 mg/kg/day; Not significant; assay type: functional, organism-based
[8] = test system: Rattus norvegicus; assay: In vivo inhibition of galactitol accumulation in sciatic nerves of rat at 48 mg/kg/day; Not significant; assay type: functional, organism-based; conditions: Sciatic nerve
[9] = test system: Rattus norvegicus; assay: In vivo inhibition of galactitol accumulation in diaphragm of rat at 48 mg/kg/day; assay type: functional
[10] = species: Rattus norvegicus; assay: In vitro inhibition of sorbitol accumulation was measured in rat sciatic nerves incubated in the presence of 50 mM glucose at 10e-6 M concentration; assay type: functional, Sciatic nerve
[11] = species: Rattus norvegicus; assay: In vitro inhibition of sorbitol accumulation was measured in rat sciatic nerves incubated in the presence of 50 mM glucose at 10e-5 M concentration; assay type: functional, Sciatic nerve
[12] = test system: Rattus norvegicus; assay: In vivo inhibition of galactitol accumulation in sciatic nerves of rat at 48 mg/kg/day; assay type: functional; conditions: Sciatic nerve
[13] = test system: Rattus norvegicus; assay: In vivo inhibition of galactitol accumulation in diaphragm of rat at 49 mg/kg/day; assay type: functional
[14] = test system: Rattus norvegicus; assay: In vivo inhibition of galactitol accumulation in sciatic nerves of rat at 49 mg/kg/day; assay type: functional; conditions: Sciatic nerve
[15] = test system: Rattus norvegicus; assay: In vivo inhibition of galactitol accumulation in diaphragm of rat at 25 mg/kg/day; […]; assay type: functional, organism-based
[16] = test system: Rattus norvegicus; assay: In vivo inhibition of galactitol accumulation in sciatic nerves of rat at 25 mg/kg/day; Not significant; assay type: functional, organism-based; conditions: Sciatic nerve
[17] = target: Aldo-keto reductase family 1 member B1 (Bos taurus) (UniProt P16116); assay: In vitro % decrease of aldose reductase was measured in isolated partially purified bovine lens preparations at 10e-6 M concentration
[18] = test system: Rattus norvegicus; assay: In vivo inhibition of galactitol accumulation in sciatic nerves of rat at 50 mg/kg/day; assay type: functional; conditions: Sciatic nerve
[19] = test system: Rattus norvegicus; assay: In vivo inhibition of galactitol accumulation in diaphragm of rat at 50 mg/kg/day; assay type: functional
[20] = test system: Rattus norvegicus; assay: In vivo inhibition of galactitol accumulation in sciatic nerves at 5 mg/kg/day; Not significant; assay type: functional, organism-based; conditions: Sciatic nerve
[21] = test system: Rattus norvegicus; assay: In vivo inhibition of galactitol accumulation in diaphragm of rat at 25 mg/kg/day; assay type: functional
[22] = test system: Rattus norvegicus; assay: In vivo inhibition of galactitol accumulation in sciatic nerves of rat at 25 mg/kg/day; assay type: functional; conditions: Sciatic nerve
[23] = test system: Rattus norvegicus; assay: In vivo inhibition of galactitol accumulation in sciatic nerves of rat at 50 mg/kg/day; Not significant; assay type: functional, organism-based; conditions: Sciatic nerve
[24] = target: Aldo-keto reductase family 1 member B1 (Bos taurus) (UniProt P16116); assay: In vitro % decrease of […] reductase was measured in isolated partially purified bovine lens preparations at 10e-7 M concentration
[25] = test system: Rattus norvegicus; assay: In vivo inhibition of galactitol accumulation in sciatic nerves of rat at 5 mg/kg/day; assay type: functional; conditions: Sciatic nerve
[26] = test system: Rattus norvegicus; assay: In vivo inhibition of galactitol accumulation in diaphragm of rat at 5 mg/kg/day; assay type: functional
[27] = test system: Rattus norvegicus; assay: In vivo inhibition of galactitol accumulation in sciatic nerves of rat at 2 mg/kg/day; Not significant; assay type: functional, organism-based; conditions: Sciatic nerve
[28] = test system: Rattus norvegicus; assay: In vivo inhibition of galactitol accumulation in sciatic nerves of rat at 10 mg/kg/day; assay type: functional; conditions: Sciatic nerve
[29] = test system: Rattus norvegicus; assay: In vivo inhibition of galactitol accumulation in diaphragm of rat at 24 mg/kg/day; assay type: functional
[30] = test system: Rattus norvegicus; assay: In vivo inhibition of galactitol accumulation in sciatic nerves of rat at 24 mg/kg/day; assay type: functional; conditions: Sciatic nerve

COc1ccc2c(C(F)(F)F)c(OC)ccc2c1C(=S)N(C)CC(=O)O
inhibition [1]: inactive
inhibition in vivo at 26 mg/kg/day [2]: 71%
inhibition [3]: 91%

COc1ccc2c(C(=O)N(C)CC(=O)O)ccc(F)c2c1C(F)(F)F
inhibition [1]: inactive
inhibition in vivo at 26 mg/kg/day [2]: 15%
inhibition [3]: 64%

CCOC(=O)N(CC(=O)O)C(=O)c1cc(Br)cc2c(Br)c(OC)ccc12
inhibition [3]: 84%
inhibition [4]: inactive
inhibition [5]: inactive

COc1ccc2c(C(=O)N(C)CC(N)=O)c(C(C)(C)C)ccc2c1C(F)(F)F
inhibition [6]: inactive
inhibition [7]: inactive
inhibition [8]: inactive

COc1ccc2c(C(=O)N(C)CC(=O)O)c(Oc3ccccc3)ccc2c1C(F)(F)F
inhibition in vivo at 48 mg/kg/day [9]: 67%
Inhibition [10]: 45%
inhibition [3]: 83%
Inhibition [11]: 78%
inhibition in vivo at 48 mg/kg/day [12]: 32%

CCOc1ccc2c(C(F)(F)F)c(OC)ccc2c1C(=O)N(C)CC(=O)O
inhibition in vivo at 49 mg/kg/day [13]: 57%
Inhibition [10]: 30%
inhibition [3]: 65%
Inhibition [11]: 55%
inhibition in vivo at 49 mg/kg/day [14]: 45%

COc1ccc2c(C(=O)N(C)CC(N)=O)c(OCC(F)(F)F)ccc2c1C(F)(F)F
inhibition [6]: inactive
inhibition [15]: inactive
inhibition [16]: inactive

CCCCc1ccc2c(C(F)(F)F)c(OC)ccc2c1C(=O)N(C)CC(N)=O
inhibition [6]: inactive
inhibition [7]: inactive
inhibition in vivo at 48 mg/kg/day [12]: 30%

COc1ccc2c(C(=O)N(C)CC(=O)O)c(C(C)(C)C)ccc2c1C(F)(F)F
inhibition [3]: 6%
inhibition [17]: 23%
inhibition [4]: inactive
inhibition [5]: inactive

CCCOc1ccc2c(C(F)(F)F)c(OC)ccc2c1C(=O)N(C)CC(=O)O
inhibition in vivo at 50 mg/kg/day [18]: 48%
inhibition [3]: 46%
inhibition in vivo at 50 mg/kg/day [19]: 57%

COc1ccc2c(C(=S)N(C)CC(=O)O)c(F)ccc2c1C(F)(F)F
inhibition [20]: inactive
inhibition in vivo at 25 mg/kg/day [21]: 93%
inhibition in vivo at 25 mg/kg/day [22]: 92%

COc1ccc2c(C(=S)N(C)CC(=O)O)cc(Br)cc2c1Br
inhibition [1]: inactive
inhibition in vivo at 26 mg/kg/day [2]: 86%
inhibition [3]: 94%

COc1ccc2c(C(=S)N(C)CC(=O)O)ccc(F)c2c1C(F)(F)F
inhibition in vivo at 25 mg/kg/day [21]: 90%
inhibition in vivo at 25 mg/kg/day [22]: 94%
inhibition [3]: 84%

CCOC(=O)N(CC(=O)O)C(=O)c1c(Cl)ccc2c(C(F)(F)F)c(OC)ccc12
Inhibition [10]: 54%
inhibition [3]: 79%
Inhibition [11]: 79%
inhibition in vivo at 50 mg/kg/day [19]: 47%
inhibition [23]: inactive

COc1ccc2c(C(=S)N(C)CC(=O)O)c(C)ccc2c1C(F)(F)F
inhibition [24]: 70%
inhibition [1]: inactive
inhibition in vivo at 26 mg/kg/day [2]: 91%

COc1ccc2c(C(=S)N(C)CC(N)=O)c(F)ccc2c1C(F)(F)F
inhibition in vivo at 5 mg/kg/day [25]: 33%
inhibition in vivo at 5 mg/kg/day [26]: 80%
inhibition [27]: inactive
inhibition in vivo at 10 mg/kg/day [28]: 54%

COc1ccc2c(C(=S)N(C)CC(=O)O)c(OCc3ccccc3)ccc2c1C(F)(F)F
inhibition [1]: inactive
inhibition in vivo at 26 mg/kg/day [2]: 80%
inhibition [3]: 84%

COc1ccc2c(C(=O)N(C)CC(N)=O)c(Cl)ccc2c1C(F)(F)F
inhibition in vivo at 24 mg/kg/day [29]: 53%
inhibition [6]: inactive
inhibition in vivo at 24 mg/kg/day [30]: 62%
